What was measured:
Assay type in all cases: in vivo
[1] = tested on: velvetleaf (Abutilon theophrasti); assay: Test G Post-Emergence Protocol; conditions: Abutilon theophrasti, post-emergence, 312 h; for pest or weed control at 15.625 g/ha: 15.625 g ai/ha, evaluated after 13 days (100=total damage to plant; 0=no damage to plant), read-out: Velvetleaf damage rating; for pest or weed control at 62.5 g/ha: 62.5 g ai/ha, read-out: Velvetleaf damage rating (100=total damage to plant; 0=no damage to plant); for pest or weed control at 62.5 g/ha / pest or weed control at 250 g/ha: evaluated after 13 days; for pest or weed control at 250 g/ha: 250 g ai/ha, read-out: damage to plant, Velvetleaf (100=total damage to plant; 0=no damage to plant)
Procedure: (§1) Seeds of corn (Zea mays), giant foxtail (Setaria faberi), barnyardgrass (Echinochloa crus-galli), ivy-leaved morning glory (Ipomoea hederacea), redroot pigweed (Amaranthus retroflexus) and velvetleaf (Abutilon theophrasti) were sown in standard soil in pots. After cultivation for 8 days under controlled conditions in a glasshouse (at 24/16° C., day/night; 14 hours light; 65% humidity), the plants were sprayed with an aqueous spray solution derived from the formulation of the technical active ingredient in acetone/water (50:50) solution containing 0.5% Tween 20 (polyoxyethylene sorbitan monolaurate, CAS RN 9005-64-5) to give a final dose of 15.625, 62.5 or 250 g/ha of test compound.
(§2) The test plants were then grown on under controlled conditions in a glasshouse (at 24/16° C., day/night; 14 hours light; 65% humidity) and watered twice daily. After 13 days the test was evaluated (100=total damage to plant; 0=no damage to plant). A dash (-) means no test result.

[2] = tested on: giant foxtail (Setaria faberi); assay: Test G Post-Emergence Protocol; conditions: Setaria faberi, post-emergence, 312 h; for pest or weed control at 15.625 g/ha: 15.625 g ai/ha, evaluated after 13 days (100=total damage to plant; 0=no damage to plant), read-out: Foxtail, Giant damage rating; for pest or weed control at 62.5 g/ha: 62.5 g ai/ha, read-out: Foxtail, Giant damage rating (100=total damage to plant; 0=no damage to plant); for pest or weed control at 62.5 g/ha / pest or weed control at 250 g/ha: evaluated after 13 days; for pest or weed control at 250 g/ha: 250 g ai/ha, read-out: damage to plant, Foxtail, Giant (100=total damage to plant; 0=no damage to plant)
Procedure: as §1, §2

[3] = tested on: barnyardgrass (Echinochloa crus-galli); assay: Test G Post-Emergence Protocol; conditions: Echinochloa crus-galli, post-emergence, 312 h; for pest or weed control at 15.625 g/ha: 15.625 g ai/ha, evaluated after 13 days (100=total damage to plant; 0=no damage to plant), read-out: Barnyardgrass damage rating; for pest or weed control at 62.5 g/ha: 62.5 g ai/ha, read-out: Barnyardgrass damage rating (100=total damage to plant; 0=no damage to plant); for pest or weed control at 62.5 g/ha / pest or weed control at 250 g/ha: evaluated after 13 days; for pest or weed control at 250 g/ha: 250 g ai/ha, read-out: damage to plant, Barnyardgrass (100=total damage to plant; 0=no damage to plant)
Procedure: as §1, §2

[4] = tested on: redroot pigweed (Amaranthus retroflexus); assay: Test G Post-Emergence Protocol; conditions: Amaranthus retroflexus, post-emergence, 312 h; for pest or weed control at 15.625 g/ha: 15.625 g ai/ha, evaluated after 13 days (100=total damage to plant; 0=no damage to plant), read-out: Pigweed, Redroot damage rating; for pest or weed control at 62.5 g/ha: 62.5 g ai/ha, read-out: Pigweed, Redroot damage rating (100=total damage to plant; 0=no damage to plant); for pest or weed control at 62.5 g/ha / pest or weed control at 250 g/ha: evaluated after 13 days; for pest or weed control at 250 g/ha: 250 g ai/ha, read-out: damage to plant, Pigweed, Redroot (100=total damage to plant; 0=no damage to plant)
Procedure: as §1, §2

[5] = tested on: ivy-leaved morning glory (Ipomoea hederacea); assay: Test G Post-Emergence Protocol; conditions: Ipomoea, post-emergence, 312 h; for pest or weed control at 15.625 g/ha: 15.625 g ai/ha, evaluated after 13 days (100=total damage to plant; 0=no damage to plant), read-out: Morningglory, Ivy-leaved damage rating; for pest or weed control at 62.5 g/ha: 62.5 g ai/ha, read-out: Morningglory, Ivy-leaved damage rating (100=total damage to plant; 0=no damage to plant); for pest or weed control at 62.5 g/ha / pest or weed control at 250 g/ha: evaluated after 13 days; for pest or weed control at 250 g/ha: 250 g ai/ha, read-out: damage to plant, Morningglory, Ivy-leaved (100=total damage to plant; 0=no damage to plant)
Procedure: as §1, §2

corn (Zea mays) [6] = assay: Test G Post-Emergence Protocol; conditions: Zea mays, post-emergence, 312 h; for plant injury at 15.625 g/ha: 15.625 g ai/ha, evaluated after 13 days (100=total damage to plant; 0=no damage to plant), read-out: Corn damage rating; for plant injury at 62.5 g/ha: 62.5 g ai/ha, read-out: Corn damage rating (100=total damage to plant; 0=no damage to plant); for plant injury at 62.5 g/ha / plant injury at 250 g/ha: evaluated after 13 days; for plant injury at 250 g/ha: 250 g ai/ha, read-out: damage to plant, Corn (100=total damage to plant; 0=no damage to plant)
Procedure: as §1, §2

[7] = tested on: velvetleaf (Abutilon theophrasti); assay: Test G Pre-Emergence Protocol; conditions: Abutilon theophrasti, pre-emergence, 312 h, evaluated after 13 days; for pest or weed control at 15.625 g/ha: 15.625 g ai/ha; for pest or weed control at 15.625 g/ha / pest or weed control at 250 g/ha: read-out: Velvetleaf damage rating (100=total damage to plant; 0=no damage to plant); for pest or weed control at 62.5 g/ha: 62.5 g ai/ha, 100=total damage to plant, 0=no damage to plant, read-out: plant damage rating, Velvetleaf; for pest or weed control at 250 g/ha: 250 g ai/ha
Procedure: as §1, with “one day” for “8 days”
as §2

[8] = tested on: giant foxtail (Setaria faberi); assay: Test G Pre-Emergence Protocol; conditions: Setaria faberi, pre-emergence, 312 h, evaluated after 13 days; for pest or weed control at 15.625 g/ha: 15.625 g ai/ha; for pest or weed control at 15.625 g/ha / pest or weed control at 250 g/ha: read-out: Foxtail, Giant damage rating (100=total damage to plant; 0=no damage to plant); for pest or weed control at 62.5 g/ha: 62.5 g ai/ha, 100=total damage to plant, 0=no damage to plant, read-out: plant damage rating, Foxtail, Giant; for pest or weed control at 250 g/ha: 250 g ai/ha
Procedure: as §1, with “one day” for “8 days”
as §2

[9] = tested on: barnyardgrass (Echinochloa crus-galli); assay: Test G Pre-Emergence Protocol; conditions: Echinochloa crus-galli, pre-emergence, 312 h, evaluated after 13 days; for pest or weed control at 15.625 g/ha: 15.625 g ai/ha, read-out: Barnyard grass damage rating (100=total damage to plant; 0=no damage to plant); for pest or weed control at 62.5 g/ha: 62.5 g ai/ha, 100=total damage to plant, 0=no damage to plant, read-out: plant damage rating, Barnyardgrass; for pest or weed control at 250 g/ha: 250 g ai/ha, read-out: Barnyardgrass damage rating (100=total damage to plant; 0=no damage to plant)
Procedure: as §1, with “one day” for “8 days”
as §2

[10] = tested on: redroot pigweed (Amaranthus retroflexus); assay: Test G Pre-Emergence Protocol; conditions: Amaranthus retroflexus, pre-emergence, 312 h, evaluated after 13 days; for pest or weed control at 15.625 g/ha: 15.625 g ai/ha; for pest or weed control at 15.625 g/ha / pest or weed control at 250 g/ha: read-out: Pigweed, Redroot damage rating (100=total damage to plant; 0=no damage to plant); for pest or weed control at 62.5 g/ha: 62.5 g ai/ha, 100=total damage to plant, 0=no damage to plant, read-out: plant damage rating, Pigweed, Redroot; for pest or weed control at 250 g/ha: 250 g ai/ha
Procedure: as §1, with “one day” for “8 days”
as §2

[11] = tested on: ivy-leaved morning glory (Ipomoea hederacea); assay: Test G Pre-Emergence Protocol; conditions: Ipomoea, pre-emergence, 312 h, evaluated after 13 days; for pest or weed control at 15.625 g/ha: 15.625 g ai/ha, read-out: Morning-glory, Ivy-leaved damage rating (100=total damage to plant; 0=no damage to plant); for pest or weed control at 62.5 g/ha: 62.5 g ai/ha, 100=total damage to plant, 0=no damage to plant, read-out: plant damage rating, Morningglory, Ivy-leaved; for pest or weed control at 250 g/ha: 250 g ai/ha, read-out: Morningglory, Ivy-leaved damage rating (100=total damage to plant; 0=no damage to plant)
Procedure: as §1, with “one day” for “8 days”
as §2

corn (Zea mays) [12] = assay: Test G Pre-Emergence Protocol; conditions: Zea mays, pre-emergence, 312 h, evaluated after 13 days; for plant injury at 15.625 g/ha: 15.625 g ai/ha; for plant injury at 15.625 g/ha / plant injury at 250 g/ha: read-out: Corn damage rating (100=total damage to plant; 0=no damage to plant); for plant injury at 62.5 g/ha: 62.5 g ai/ha, 100=total damage to plant, 0=no damage to plant, read-out: plant damage rating, Corn; for plant injury at 250 g/ha: 250 g ai/ha
Procedure: as §1, with “one day” for “8 days”
as §2

| SMILES | pest or weed control at 15.625 g/ha [1] | pest or weed control at 62.5 g/ha [1] | pest or weed control at 250 g/ha [1] | pest or weed control at 15.625 g/ha [2] | pest or weed control at 62.5 g/ha [2] | pest or weed control at 250 g/ha [2] | pest or weed control at 15.625 g/ha [3] | pest or weed control at 62.5 g/ha [3] | pest or weed control at 250 g/ha [3] | pest or weed control at 15.625 g/ha [4] | pest or weed control at 62.5 g/ha [4] | pest or weed control at 250 g/ha [4] | pest or weed control at 15.625 g/ha [5] | pest or weed control at 62.5 g/ha [5] | pest or weed control at 250 g/ha [5] | plant injury at 15.625 g/ha (corn (Zea mays) [6]) | plant injury at 62.5 g/ha (corn (Zea mays) [6]) | plant injury at 250 g/ha (corn (Zea mays) [6]) | pest or weed control at 15.625 g/ha [7] | pest or weed control at 62.5 g/ha [7] | further results |
| --- | --- | --- | --- | --- | --- | --- | --- | --- | --- | --- | --- | --- | --- | --- | --- | --- | --- | --- | --- | --- | --- |
| CSc1ccccc1NC(=O)[C@@H]1C(=O)N(C)C[C@H]1c1ccc(C(F)(F)F)nc1 (racemic) [Compound 1584] | 0% | 0% | 20% | 0% | 40% | 80% | 0% | 0% | 70% | 0% | 0% | 40% | 0% | 20% | 10% | 0% | 10% | 0% | 0% | 0% | pest or weed control at 250 g/ha [7]: 20%; pest or weed control at 15.625 g/ha [8]: 0%; pest or weed control at 62.5 g/ha [8]: 50%; pest or weed control at 250 g/ha [8]: 90%; pest or weed control at 15.625 g/ha [9]: 0%; pest or weed control at 62.5 g/ha [9]: 0%; pest or weed control at 250 g/ha [9]: 90%; pest or weed control at 15.625 g/ha [10]: 0%; pest or weed control at 62.5 g/ha [10]: 0%; pest or weed control at 250 g/ha [10]: 60%; pest or weed control at 15.625 g/ha [11]: 0%; pest or weed control at 62.5 g/ha [11]: 0%; pest or weed control at 250 g/ha [11]: 10%; plant injury at 15.625 g/ha (corn (Zea mays) [12]): 0%; plant injury at 62.5 g/ha (corn (Zea mays) [12]): 0%; plant injury at 250 g/ha (corn (Zea mays) [12]): 70% |
| CN1C[C@H](c2cccc(C#N)c2)[C@@H](C(=O)Nc2ccccc2F)C1=O (racemic) [Compound 1471] | 10% | 0% | 10% | 10% | 60% | 70% | 30% | 30% | 50% | 10% | 0% | 20% | 10% | 0% | 20% | 10% | 0% | 0% | 0% | 0% | pest or weed control at 250 g/ha [7]: 0%; pest or weed control at 15.625 g/ha [8]: 40%; pest or weed control at 62.5 g/ha [8]: 80%; pest or weed control at 250 g/ha [8]: 90%; pest or weed control at 15.625 g/ha [9]: 10%; pest or weed control at 62.5 g/ha [9]: 70%; pest or weed control at 250 g/ha [9]: 90%; pest or weed control at 15.625 g/ha [10]: 0%; pest or weed control at 62.5 g/ha [10]: 0%; pest or weed control at 250 g/ha [10]: 0%; pest or weed control at 15.625 g/ha [11]: 0%; pest or weed control at 62.5 g/ha [11]: 0%; pest or weed control at 250 g/ha [11]: 20%; plant injury at 15.625 g/ha (corn (Zea mays) [12]): 0%; plant injury at 62.5 g/ha (corn (Zea mays) [12]): 0%; plant injury at 250 g/ha (corn (Zea mays) [12]): 0% |
